We go through 30 compounds from ChEMBL document CHEMBL5038652, “Structural Rigidification of N-Aryl-pyrroles into Indoles Active against Intracellular and Drug-Resistant Mycobacteria” (ACS Med Chem Lett, 2022).

≈ marks a conversion by molar mass, not a printed value.

Series [1] relates to Mycobacterium tuberculosis. In words: Antimycobacterial activity against Mycobacterium tuberculosis H37Rv assessed as reduction in bacterial growth incubated for 7 days by resazurin dye based assay. Format: functional. The settings on record: 168 h, time 7 day. On the technique in general: Alamar Blue is a resazurin reagent that responds to reducing activity.
Series [2] is described as follows: Selectivity index, ratio of IC50 for mouse J774.A1 cells to MIC for Mycobacterium tuberculosis H37Rv. In kind it is toxicity. The following applies: read-out: Selectivity Index.
Series [3] is described as follows: Cytotoxicity against mouse J774.A1 cells assessed as reduction in cell viability after 24 hrs by resazurin dye based assay. Format: toxicity.
In series [4] the test system is Mycobacterium tuberculosis. In words: Antimycobacterial activity against Mycobacterium tuberculosis H37Rv clinical isolates 1 assessed as reduction in bacterial growth incubated for 7 days by resazurin dye based assay. In kind it is functional. The following applies: 168 h, time 7 day.
Series [5] deals with Mycobacterium tuberculosis. In words: Antimycobacterial activity against Mycobacterium tuberculosis H37Rv clinical isolates 3 assessed as reduction in bacterial growth incubated for 7 days by resazurin dye based assay. The settings on record: 168 h, time 7 day. In kind it is functional.
Series [6] relates to Mycobacterium tuberculosis. Nature of the series: Antimycobacterial activity against Mycobacterium tuberculosis H37Rv clinical isolates 4 assessed as reduction in bacterial growth incubated for 7 days by resazurin dye based assay. Format: functional. The following applies: 168 h, time 7 day.
The subject of series [7] is Mycobacterium tuberculosis. Nature of the series: Antimycobacterial activity against Mycobacterium tuberculosis H37Rv clinical isolates 2 assessed as reduction in bacterial growth incubated for 7 days by resazurin dye based assay. In kind it is functional. The settings on record: 168 h, time 7 day.
The test system of series [8] is Mycobacterium tuberculosis. Nature of the series: Antimycobacterial activity against Mycobacterium tuberculosis H37Rv infected in mouse J774.A1 cells assessed as log reduction of bacterial growth at 1X MIC measured after 3 days by visual colony counting analysis. Format: functional. The following applies: time 3 day.

In general, MIC refers to the lowest concentration that inhibits growth of the organism. Take `c1ccc2c(CNC3CCCCCC3)c[nH]c2c1`: the MIC in series [1] was over 25 µg/mL.

For `Cc1cc(CNC2CCCCC2)c(C)n1-c1ccc(Cl)cc1`, the MIC in series [1] was found to be 0.2 µg/mL (≈ 0.631 µM).

For `Cc1cc(CNCC2CCCCC2)c(C)n1-c1ccc(Cl)cc1`, the MIC in series [1] was 0.3 µg/mL (≈ 0.907 µM).

Consider `Cc1ccc2[nH]cc(CNC3CCCCC3)c2c1`, for which the MIC in series [1] is over 25 µg/mL.

As to `CC(C)=CCC/C=C(\C)Cn1cc(CNC2CCCCCC2)c2ccc(Cl)cc21`, in series [1], the MIC worked out at 2.75 µg/mL (≈ 6.66 µM).

Regarding `Clc1ccc2[nH]cc(CNC3CCCCC3)c2c1`, the MIC in series [1] worked out at 16.3 µg/mL (≈ 62.1 µM).

Consider `Clc1ccc2c(CNCc3ccccc3)c[nH]c2c1`, for which the MIC in series [1] came to 22.8 µg/mL (≈ 84.3 µM).

With `Clc1ccc2c(CNCc3ccccc3)cn(C3CCCCCCC3)c2c1`, the MIC in series [1] stood at 19.7 µg/mL (≈ 51.8 µM).

As to `Clc1ccc2c(CNC3CCCCCC3)c[nH]c2c1`, the MIC in series [1] turned out to be 17.1 µg/mL (≈ 61.9 µM).

Turning to `Cn1cc(CNC2CCCCC2)c2ccc(Cl)cc21`, the minimal inhibitory concentration (MIC) in series [1] is over 25 µg/mL.

In the case of `Clc1ccc2c(CNC3CCCCC3)c[nH]c2c1`, the MIC in series [1] was over 25 µg/mL.

As usually defined, the IC50 is the concentration needed to halve the response being measured. Turning to `CC(C)n1cc(CNCC2CCCCC2)c2ccc(Cl)cc21`, in series [2], the selectivity ratio was 2.39. Also, the IC50 at 24 h in series [3] was 14.6 µg/mL (≈ 45.7 µM). In series [1], the MIC was 6.09 µg/mL (≈ 19.1 µM).

On to `CC(C)n1cc(CNC2CCCCCCC2)c2ccc(Cl)cc21`, for which the MIC in series [1] amounted to 14 µg/mL (≈ 42.1 µM).

Take `Clc1ccc2c(CNCC3CCCCC3)c[nH]c2c1`: the MIC in series [1] amounted to 24.2 µg/mL (≈ 87.4 µM).

`c1ccc2c(CNC3CCCCCCC3)c[nH]c2c1`: the MIC in series [1] was over 25 µg/mL.

As to `Cn1cc(CNCC2CCCCC2)c2ccc(Cl)cc21`, in series [1], the minimal inhibitory concentration (MIC) is 19.1 µg/mL (≈ 65.6 µM).

For `CC(C)n1cc(CNC2CCCCC2)c2ccc(Cl)cc21`, in series [1], the minimal inhibitory concentration (MIC) turned out to be 23.9 µg/mL (≈ 78.3 µM).

As to `CC(C)n1cc(CNC2CCCCCC2)c2ccc(Cl)cc21`, the MIC in series [1] was found to be 16.3 µg/mL (≈ 51.2 µM).

Regarding `Cn1cc(CNCc2ccccc2)c2ccc(Cl)cc21`, the MIC in series [1] was over 25 µg/mL.

For `Clc1ccc2c(CNCC3CCCCC3)cn(C3CCCCCCC3)c2c1`, in series [1], the MIC came out at 1.56 µg/mL (≈ 4.03 µM).

As to `Cc1ccc2[nH]cc(CNC3CCCCCC3)c2c1`, in series [1], the MIC stood at 24.7 µg/mL (≈ 96.4 µM).

Take `Clc1ccc2c(CNC3C4CC5CC(C4)CC3C5)c[nH]c2c1` (stereo not given): the selectivity ratio in series [2] is 1.24. In series [3], the IC50 at 24 h is 7.51 µg/mL (≈ 23.9 µM). Besides, the MIC in series [1] is 6.07 µg/mL (≈ 19.3 µM).

Turning to `Cn1cc(CNC2C3CC4CC(C3)CC2C4)c2ccc(Cl)cc21` (stereo not given), the selectivity ratio in series [2] worked out at 1.48. For the same compound, the IC50 at 24 h in series [3] stood at 16.2 µg/mL (≈ 49.2 µM). For the same compound, the MIC in series [1] is 10.9 µg/mL (≈ 33.2 µM).

With `c1ccc2c(CNCC3CCCCC3)c[nH]c2c1`, the MIC in series [1] is over 25 µg/mL.

With `Clc1ccc2c(CNC3CCCCCCC3)c[nH]c2c1`, in series [1], the MIC was over 25 µg/mL.

For the compound `Cn1cc(CNC2CCCCCCC2)c2ccc(Cl)cc21`, the MIC in series [1] is 23.2 µg/mL (≈ 76.3 µM).

`NCC[C@H](O)C(=O)N[C@@H]1C[C@H](N)[C@@H](O[C@H]2O[C@H](CN)[C@@H](O)[C@H](O)[C@H]2O)[C@H](O)[C@H]1O[C@H]1O[C@H](CO)[C@@H](O)[C@H](N)[C@H]1O` [AMIKACIN]: the minimum inhibitory concentration (MIC) in series [4] is 0.32 µg/mL (≈ 0.546 µM); in series [5], over 25 µg/mL; in series [6], 0.14 µg/mL (≈ 0.239 µM); in series [7], 23.1 µg/mL (≈ 39.5 µM).

Take `NNC(=O)c1ccncc1` [ISONIAZID]: the MIC in series [4] was over 25 µg/mL; in series [5], over 25 µg/mL; in series [6], 0.25 µg/mL (≈ 1.82 µM); in series [7], over 25 µg/mL.

Regarding `COc1c(N2C[C@@H]3CCCN[C@@H]3C2)c(F)cc2c(=O)c(C(=O)O)cn(C3CC3)c12` [MOXIFLOXACIN], the Activity in series [8] is reported as 0.11 log10CFU.

For the compound `CO[C@H]1/C=C/O[C@@]2(C)Oc3c(C)c(O)c4c(O)c(c(/C=N/N5CCN(C)CC5)c(O)c4c3C2=O)NC(=O)/C(C)=C\C=C\[C@H](C)[C@H](O)[C@@H](C)[C@@H](O)[C@@H](C)[C@H](OC(C)=O)[C@@H]1C` [RIFAMPIN], the MIC in series [4] is over 25 µg/mL; in series [5] it was over 25 µg/mL; in series [6] it was under 0.1 µg/mL; in series [7], 0.65 µg/mL (≈ 0.79 µM).
